In general, IC50 refers to the concentration at which inhibition is half-maximal. A high value points to weaker potency in that assay. In general, inhibition refers to the change of the read-out against control, counted positive when it falls.

Here are results for 18 compounds from paper PMC4549708, “Inhibition of neuraminidase by Ganoderma triterpenoids and implications for neuraminidase inhibitor design” (Scientific Reports, 2015).

The target of one data set is NA (H5N1) (Influenza A virus, UniProt K0C216). The data set can be described thus: biochemical. The conditions noted are these: for Inhibition rate (%) NA (H5N1): 200 µM; for inhibition at 200 µM: read-out: Inhibition rate (%) NA (H5N1).
Another data set addresses NA (H1N1,09) (Influenza A virus, UniProt C3W5S3). As to the kind of experiment: biochemical. To be noted: for Inhibition rate (%) NA(H1N1,09) / inhibition at 200 µM: 200 μM of each compound, n = 3, means ± standard deviation; for IC50: in vitro NA inhibition assay (n = 3); for inhibition at 200 µM: read-out: Inhibition rate (%) NA(H1N1,09).
The next data set concerns NA (H7N9). The class given is biochemical. The conditions noted are these: 200 µM.
A short description of the next data set: in vitro. The conditions noted are these: human.

Each structure is given as a SMILES string. A value given as a limit tells only on which side of the number the result lay.

In the data set on MCF7 cells, `C/C(=C/CC[C@@H](C)[C@H]1CC[C@@]2(C)C3=CC[C@H]4C(C)(C)C(=O)CC[C@]4(C)C3=CC[C@]12C)C(=O)O` [Compound 4, Ganoderic acid Sz] registered a CC50 of 50.6 ± 0.1 µM. Besides, on NA (H5N1), the “Inhibition rate (%) NA (H5N1)” value is recorded as 0.0%. Besides, on NA (H1N1,09), the “Inhibition rate (%) NA(H1N1,09)” value turned out to be 60.1 ± 4.8% and the IC50 worked out at 101 ± 35.9 µM. Also, the “Inhibition rate (%) NA(H7N9)” value in the data set on NA (H7N9) is listed as 17.8 ± 4.0%.
For the compound `C/C(=C\[C@@H](O)C[C@@H](C)[C@H]1CC(=O)[C@@]2(C)C3=C(C(=O)C[C@]12C)[C@@]1(C)CC[C@H](O)C(C)(C)[C@@H]1CC3=O)C(=O)O` [Compound 22, Ganoderic acid Zeta], in the data set with MCF7 cells, the CC50 was over 200 µM. For the same compound, the “Inhibition rate (%) NA (H5N1)” value on NA (H5N1) was 0.0%. For the same compound, the “Inhibition rate (%) NA(H1N1,09)” value at NA (H1N1,09) is on record as 35.9 ± 5.3%. The “Inhibition rate (%) NA(H7N9)” value in the data set with NA (H7N9) stood at 17.7 ± 2.4%.
Compound `C/C(=C\CC[C@@H](C)[C@H]1CC[C@@]2(C)C3=C(CC[C@]12C)[C@@]1(C)CCC(=O)C(C)(C)[C@@H]1CC3=O)C(=O)O` [Compound 20, Ganoderic acid DM] displayed a CC50 in the data set “in vitro” of over 200 µM. For the same compound, the inhibition at 200 µM is 55.2 ± 0.7% on NA (H5N1) and 50.4 ± 1.5% at NA (H1N1,09). For the same compound, the “Inhibition rate (%) NA(H7N9)” value with NA (H7N9) turned out to be 29.4 ± 3.8%.
Consider `C[C@H](CC(=O)C[C@@H](C)[C@H]1CC(=O)[C@@]2(C)C3=C(C(=O)C[C@]12C)[C@@]1(C)CCC(=O)C(C)(C)[C@@H]1C[C@@H]3O)C(=O)O` [Compound 19, Ganoderic acid C1], for which, in the data set “in vitro”, the CC50 was over 200 µM. Besides, the inhibition at 200 µM on NA (H5N1) was determined as 43.3 ± 6.1%; at NA (H1N1,09), 21.1 ± 4.1%. The “Inhibition rate (%) NA(H7N9)” value in the data set with NA (H7N9) was found to be 26.2 ± 4.1%.
For `CC(=O)O[C@H]1C[C@H]([C@H](C)CC/C=C(\C)C(=O)O)[C@@]2(C)CC=C3C(=CC[C@H]4C(C)(C)[C@@H](O)CC[C@]34C)[C@]12C` [Compound 3, Ganoderic acid T-N], the CC50 with MCF7 cells came to 24.4 ± 2.4 µM. In addition, at NA (H5N1), 2.7 ± 0.4 µM corresponded to half-maximal inhibition (IC50) and the “Inhibition rate (%) NA (H5N1)” value is reported as 91.1 ± 0.8%. In addition, at NA (H1N1,09), the “Inhibition rate (%) NA(H1N1,09)” value came to 72.0 ± 5.5% and the IC50 came to 42 ± 13.5 µM. In addition, in the data set with NA (H7N9), the “Inhibition rate (%) NA(H7N9)” value is on record as 25.6 ± 1.6%.
In the case of `CC(=O)O[C@@H]1C(=O)C2=C(C(=O)C[C@H]3C(C)(C)C(=O)CC[C@]23C)[C@]2(C)C(=O)C[C@H]([C@H](C)CC(=O)CC(C)C(=O)O)[C@@]12C` (stereo partly shown) [Compound 24, Ganoderic acid F], in “in vitro”, the CC50 was over 200 µM. Besides, the figures for the inhibition at 200 µM at NA (H5N1) and at NA (H1N1,09) were 48.6 ± 7.4% and 12.9 ± 11.4%, respectively. Besides, the “Inhibition rate (%) NA(H7N9)” value with NA (H7N9) is 14.8 ± 2.6%.
Turning to `CC(CC(=O)C[C@@H](C)[C@H]1C[C@H](O)[C@@]2(C)C3=C(C(=O)C[C@]12C)[C@@]1(C)CCC(=O)C(C)(C)[C@@H]1CC3)C(=O)O` (stereo partly shown) [Compound 21, Ganolucidic acid A], the CC50 in “in vitro” was over 200 µM. For the same compound, the inhibition at 200 µM on NA (H5N1) was 49.8 ± 7.7%; at NA (H1N1,09), 19.4 ± 2.7%. Besides, the “Inhibition rate (%) NA(H7N9)” value in the data set on NA (H7N9) stood at 16.7 ± 3.4%.
Take `C/C(C=O)=C\CC[C@@H](C)[C@H]1CC[C@@]2(C)C3=C(CC[C@]12C)[C@@]1(C)CCC(=O)C(C)(C)[C@@H]1CC3=O` [Compound 31, Lucialdehyde B]: the CC50 in the data set “in vitro” turned out to be 7.1 ± 0.3 µM. Moreover, the inhibition at 200 µM on NA (H5N1) amounted to 86.7 ± 0.8%; on NA (H1N1,09), 51.4 ± 2.5%. Also, the “Inhibition rate (%) NA(H7N9)” value in the data set with NA (H7N9) came out at 30.4 ± 3.5%.
The matching figures for `C[C@H](CC(=O)C[C@@H](C)[C@H]1C[C@H](O)[C@@]2(C)C3=C(C(=O)C[C@]12C)[C@@]1(C)CCC(=O)C(C)(C)[C@@H]1C[C@@H]3O)C(=O)O` [Compound 7, Ganoderic acid A]: over 200 µM, 31.4 ± 7.3%, 5 ± 5.4% and 6.3 ± 2.2%.
Take `C/C(C=O)=C\CC[C@@H](C)[C@H]1CC[C@@]2(C)C3=CC[C@H]4C(C)(C)[C@@H](O)CC[C@]4(C)C3=CC[C@]12C` [Compound 30, Lucialdehyde A]: in the data set with MCF7 cells, the CC50 stood at 34.7 ± 5.5 µM. Moreover, on NA (H5N1), inhibition was half-maximal at 164 ± 18 µM (IC50) and the “Inhibition rate (%) NA (H5N1)” value turned out to be 67.1 ± 5.7%. Moreover, the “Inhibition rate (%) NA(H1N1,09)” value at NA (H1N1,09) came out at 57.6 ± 1.7%. Besides, the “Inhibition rate (%) NA(H7N9)” value with NA (H7N9) was 24.5 ± 1.6%.
As to `C/C(=C\CC[C@@H](C)[C@H]1CC[C@@]2(C)C3=CC[C@H]4C(C)(C)[C@@H](O)CC[C@]4(C)C3=CC[C@]12C)CO` [Compound 26, Ganoderol B], in “in vitro”, the CC50 was over 200 µM. The figures for the inhibition at 200 µM at NA (H5N1) and on NA (H1N1,09) were 71.6 ± 2.1% and 51 ± 2.6%, respectively. Besides, the “Inhibition rate (%) NA(H7N9)” value with NA (H7N9) is 21.8 ± 3.5%.
For the compound `C/C(=C\C(=O)CC(C)C(=O)O)C1CC(O)C2(C)C3=C(C(=O)CC12C)C1(C)CCC(O)C(C)(C)C1CC3O` (stereo not shown) [Compound 16, Ganoderenic acid C], the CC50 in the data set on MCF7 cells was over 200 µM. The “Inhibition rate (%) NA (H5N1)” value at NA (H5N1) stood at 30.6 ± 4.5%. For the same compound, on NA (H1N1,09), the “Inhibition rate (%) NA(H1N1,09)” value is 27.9 ± 0.3%. The “Inhibition rate (%) NA(H7N9)” value in the data set with NA (H7N9) amounted to 27.2 ± 0.5%.
As to `C[C@H](CCC=C(CO)CO)[C@H]1CC[C@@]2(C)C3=CC[C@H]4C(C)(C)C(=O)CC[C@]4(C)C3=CC[C@]12C` [Compound 27, Ganoderiol F], the CC50 in “in vitro” is over 200 µM. For the same compound, the inhibition at 200 µM on NA (H5N1) turned out to be 33.6 ± 12.1%; on NA (H1N1,09) it was 52.9 ± 2%. Further, the “Inhibition rate (%) NA(H7N9)” value in the data set on NA (H7N9) was 29.5 ± 4.3%.
In the same order, the values of `CC(=O)O[C@@H]1C(=O)C2=C(C(=O)C[C@H]3C(C)(C)[C@@H](O)CC[C@]23C)[C@]2(C)C(=O)C[C@H]([C@H](C)CC(=O)CC(C)C(=O)O)[C@@]12C` (stereo partly shown) [Compound 13, Ganoderic acid H] are over 200 µM, 64.1 ± 4.5%, 35 ± 4.5% and 27.2 ± 3.2%.
The matching figures for `C/C(=C\C(=O)CC(C)C(=O)O)[C@H]1C[C@H](O)[C@@]2(C)C3=C(C(=O)C[C@]12C)[C@@]1(C)CCC(=O)C(C)(C)[C@@H]1C[C@@H]3O` (stereo partly shown) [Compound 8, Ganoderenic acid A]: over 200 µM, 35.9 ± 7.7%, 35.3 ± 3.7% and 23.3 ± 3.1%.
Consider `C/C(=C\[C@@H](O)C[C@@H](C)[C@H]1CC(=O)[C@@]2(C)C3=C(C(=O)C[C@]12C)[C@@]1(C)CCC(=O)C(C)(C)[C@@H]1C[C@@H]3O)C(=O)O` [Compound 23, Ganoderic acid LM2], for which the CC50 in “in vitro” is over 200 µM. Also, the inhibition at 200 µM on NA (H5N1) was determined as 67.1 ± 5.2%; at NA (H1N1,09), 40.9 ± 6.2%. Further, the “Inhibition rate (%) NA(H7N9)” value in the data set on NA (H7N9) is given as 12.7 ± 9.6%.
In the same order, the values of `C[C@H](CC[C@H](O)[C@](C)(O)CO)[C@H]1CC[C@@]2(C)C3=CC[C@H]4C(C)(C)C(=O)CC[C@]4(C)C3=CC[C@]12C` [Compound 29, Ganodermanontriol] are over 200 µM, 60.5 ± 6.8%, 35.3 ± 5.2% and 10.3 ± 3.5%.
In the same order, the values of `C[C@H](CC(=O)C[C@@H](C)[C@H]1C[C@H](O)[C@@]2(C)C3=C(C(=O)C[C@]12C)[C@@]1(C)CC[C@H](O)C(C)(C)[C@@H]1C[C@@H]3O)C(=O)O` [Compound 9, Ganoderic acid C2] are over 200 µM, 60.8 ± 4.3%, 32.4 ± 4.5% and 27.5 ± 2.3%.
